Entries after “also recorded” stand apart in the source; their conditions may differ.
Tests used:
[1] = Plasma phospholipid DHA levels in clinical trial; assay type: in vivo, human; details: DHA treatment group
From the text: (§1) In the study, 402 individuals with mild to moderate Alzheimer's disease participated for 18 months at sites throughout the United States. Participants were randomized so that 60% of participants received approximately 2 grams of DHA (divided into 4 capsules—2 capsules taken twice a day), while 40% of the participants received an identical placebo of corn/soy oil. The DHA soft-gel capsules used in the study were provided by Martek Biosciences Corporation, and contained a microbial oil of 55% DHA (as a percentage of total fatty acids) in triglyceride form, in addition to tocopherol and orange flavoring. The capsules contained no detectable EPA. The placebo was a 50/50 mixture of corn/soy oil and also included mixed tocopherols, ascorbyl, palmitate, orange flavoring, and orange masking agent.
(§2) Various parameters were measured at baseline and at every 6 months through the conclusion of the trial at 18 months.
(§3) Plasma phospholipid fatty acid levels were determined using established methods, with modifications for cerebrospinal fluid analysis (Arterburn et al., 2007, Lipids 42(11):1011-1024; Arterburn et al., 2008, J Am Diet Assoc. 108(7):1204-1209). The fatty acid profiles were expressed as a percent of the total μg of fatty acid (weight percent).

[2] = Cerebrospinal fluid (CSF) DHA levels in CSF sub-study; assay type: in vivo, human
Protocol: All subjects without contraindication to cerebrospinal fluid (CSF) exam (e.g., anticoagulation) were invited to participate in the CSF study. In these subjects, lumbar puncture was performed in the morning after an overnight fast.
as §3

[3] = tested on: human patients with mild to moderate Alzheimer's disease; test: ADAS-cog (co-primary outcome) in clinical trial; assay type: in vivo
Protocol: as §1, with “A clinical trial was carried out to determine whether chronic DHA supplementation slows the progression of cognitive and functional decline in human patients with mild to moderate Alzheimer's disease. In” for “In”, “agent. Following the eligibility assessment, 238 of the 402 patients were randomly assigned to the DHA treatment group and 164 patients to the placebo group. Of the 238 patient DHA treatment group, 171 patients completed the full 18 month course of treatment. Of the 164 placebo group, 124 patients completed the full 18 month course of treatment. Various parameters were measured at baseline and at every 6 months through the conclusion of the trial at 18 months.” for “agent.”

[4] = tested on: human patients with mild to moderate Alzheimer's disease; test: CDR-SOB (co-primary outcome) in clinical trial; assay type: in vivo
Protocol: as §1, with “A clinical trial was carried out to determine whether chronic DHA supplementation slows the progression of cognitive and functional decline in human patients with mild to moderate Alzheimer's disease. In” for “In”, “agent. Following the eligibility assessment, 238 of the 402 patients were randomly assigned to the DHA treatment group and 164 patients to the placebo group. Of the 238 patient DHA treatment group, 171 patients completed the full 18 month course of treatment. Of the 164 placebo group, 124 patients completed the full 18 month course of treatment. Various parameters were measured at baseline and at every 6 months through the conclusion of the trial at 18 months.” for “agent.”

[5] = tested on: human patients with mild to moderate Alzheimer's disease; test: ADCS-ADL (secondary outcome) in clinical trial; assay type: in vivo
Protocol: as §1, with “A clinical trial was carried out to determine whether chronic DHA supplementation slows the progression of cognitive and functional decline in human patients with mild to moderate Alzheimer's disease. In” for “In”, “agent. Following the eligibility assessment, 238 of the 402 patients were randomly assigned to the DHA treatment group and 164 patients to the placebo group. Of the 238 patient DHA treatment group, 171 patients completed the full 18 month course of treatment. Of the 164 placebo group, 124 patients completed the full 18 month course of treatment. Various parameters were measured at baseline and at every 6 months through the conclusion of the trial at 18 months.” for “agent.”

[6] = tested on: human patients with mild to moderate Alzheimer's disease; test: NPI (secondary outcome) in clinical trial; assay type: in vivo
Protocol: as §1, with “A clinical trial was carried out to determine whether chronic DHA supplementation slows the progression of cognitive and functional decline in human patients with mild to moderate Alzheimer's disease. In” for “In”, “agent. Following the eligibility assessment, 238 of the 402 patients were randomly assigned to the DHA treatment group and 164 patients to the placebo group. Of the 238 patient DHA treatment group, 171 patients completed the full 18 month course of treatment. Of the 164 placebo group, 124 patients completed the full 18 month course of treatment. Various parameters were measured at baseline and at every 6 months through the conclusion of the trial at 18 months.” for “agent.”

[7] = tested on: human patients with mild to moderate Alzheimer's disease; test: MMSE (secondary outcome) in clinical trial; assay type: in vivo
Protocol: as §1, with “A clinical trial was carried out to determine whether chronic DHA supplementation slows the progression of cognitive and functional decline in human patients with mild to moderate Alzheimer's disease. In” for “In”, “agent. Following the eligibility assessment, 238 of the 402 patients were randomly assigned to the DHA treatment group and 164 patients to the placebo group. Of the 238 patient DHA treatment group, 171 patients completed the full 18 month course of treatment. Of the 164 placebo group, 124 patients completed the full 18 month course of treatment. Various parameters were measured at baseline and at every 6 months through the conclusion of the trial at 18 months.” for “agent.”

[8] = tested on: human patients with mild to moderate Alzheimer's disease; test: MRI sub-study, brain volume change; assay type: in vivo
Protocol: as §1, with “A clinical trial was carried out to determine whether chronic DHA supplementation slows the progression of cognitive and functional decline in human patients with mild to moderate Alzheimer's disease. In” for “In”

[9] = tested on: human patients with mild to moderate Alzheimer's disease; test: Vital signs and lab results in clinical trial; assay type: in vivo; details: 18 month trial
Protocol: (§4) A clinical trial was carried out to determine whether chronic DHA supplementation slows the progression of cognitive and functional decline in human patients with mild to moderate Alzheimer's disease.
as §1, §2

[10] = tested on: human patients with mild to moderate Alzheimer's disease; test: Pre-planned secondary analysis of DHA treatment and ApoE4 allelic status, all outcome measures; assay type: in vivo
Protocol: as §4, §1
A pre-planned secondary analysis was also carried out examining the effect of DHA treatment and ApoE4 (E4) allelic status. […] This effect was also evident on the MMSE (−3.36±4.78 in DHA compared to 5.12±5.08 in placebo; p=0.034), but was not present on the CDR-SOB, the ADCS-ADL, or the NPI.

[11] = all subjects, LME model, GEE or ANCOVA

CC/C=C\C/C=C\C/C=C\C/C=C\C/C=C\C/C=C\CCC(=O)O [DHA, (all-Z)-4,7,10,13,16,19-docosahexaenoic acid]
Plasma phospholipid DHA ([1]; approx. 2 g DHA/day oral, 6 months): 9.1 wt %
Plasma phospholipid DHA ([1]; approx. 2 g DHA/day oral, 12 months): 10.23 wt %
Plasma phospholipid DHA ([1]; approx. 2 g DHA/day oral, 18 months, p<0.001): 9.77 wt %
Plasma phospholipid DHA ([1]; baseline (before treatment)): 3.18 wt %
CSF DHA ([2]; DHA supplemented group n=29, 18 months, p<0.001): 3.45 wt %
CSF DHA ([2]; DHA supplemented group n=29, baseline (before treatment)): 2.53 wt %
ADAS-cog points change over 18 months, E4-negative group ([3]; ApoE4-negative, 61 DHA subjects, placebo 10.11±10.58 (48 subjects), p=0.028): 6.23±8.58 points
Difference DHA vs placebo in 12 month ADAS scores ([3]; Wilcoxan rank p=0.027, FIG. 1): modest difference
Difference DHA vs placebo on ADAS-cog (rate of change) ([3]; all subjects, LME model, 18 months): did not differ; also recorded: no significant difference
ADAS-cog points change over 18 months ([3]; all subjects, unadjusted, placebo 7.98±9.84, p=0.41): 8.27±8.9 points
ADAS-cog decline in ApoE4 negative subjects with MMSE >21 compared to MMSE ≦21 ([3]; post hoc analysis, FIGS. 7A and 7B): significantly less decline; also recorded: more pronounced
Difference in the effect of DHA administration on ADAS-cog between ApoE4-positive and ApoE4-negative subjects ([3]; pre-specified sub-group analysis, FIGS. 6A and 6B): statistically significant difference
DHA treatment effect on CDR-SOB in the E4-negative group ([4]; ApoE4-negative subjects): not present
Difference DHA vs placebo on CDR-SOB (rate of change) ([4]; all subjects, LME model, GEE or ANCOVA, ITT or per protocol): also did not differ; also recorded: no significant difference
CDR-SOB points change over 18 months ([4]; all subjects, placebo 2.87±2.93, p=0.68): 2.93±2.83 points
DHA treatment effect on ADCS-ADL in the E4-negative group ([5]; ApoE4-negative subjects): not present
ADCS-ADL points change over 18 months (rate of decline) ([5]; all subjects, LME analysis, placebo 10.43±11.74, p=0.38): 11.51±13.23 points
Difference DHA vs placebo on ADCS-ADL [5, 11]: no significant difference
DHA treatment effect on NPI in the E4-negative group ([6]; ApoE4-negative subjects): not present
NPI points change over 18 months ([6]; all subjects, LME analysis, placebo 5.09±15.08, p=0.11): 2.93±13.62 points
Difference DHA vs placebo on NPI [6, 11]: no significant difference
MMSE change, E4-negative group ([7]; ApoE4-negative, placebo printed 5.12±5.08, p=0.034): −3.36±4.78
MMSE points change from baseline to 18 months ([7]; all subjects, ANCOVA, placebo −4.0±4.7, p=0.88): −3.70±4.95 points
Difference DHA vs placebo on MMSE ([7]; all subjects, after 18 months of treatment): no significant difference
Absolute volume change over 18 months, total ventricular volume ([8]; MRI sub-study n=53 DHA, placebo 8.1±5.9, p=0.55): 9.1±5.0 cm^3
Absolute volume change over 18 months, total brain ([8]; MRI sub-study n=53 DHA, placebo 24.0±14.6, p=0.79): 24.7±12.3 cm^3
Absolute volume change over 18 months, right hippocampus ([8]; MRI sub-study n=53 DHA, placebo 148±109, p=0.29): 176±128 mm^3
Absolute volume change over 18 months, left hippocampus ([8]; MRI sub-study n=53 DHA, placebo 175±135, p=0.17): 141±104 mm^3
Effect of DHA treatment on absolute amount of brain volume change over 18 months ([8]; MRI sub-study, ANCOVA, total brain, hippocampus, total ventricular volume): no evidence of an effect
Effect of DHA on rates of brain atrophy among ApoE4 negative subjects ([8]; MRI sub-study, n=21 DHA, n=17 placebo): Neither was an effect of DHA seen
Cholesterol level change [9]: modest increase
Diastolic blood pressure change [9]: modest decline
HDL level change [9]: no change
Heart rate change [9]: modest decline
LDL level change [9]: modest increase
Systolic blood pressure change [9]: no change
Triglycerides change [9]: modest decline
Weight change [9]: no change
Benefit in reducing decline in cognitive ability in AD subjects negative for the ApoE4 allele ([10]; ApoE4-negative subjects afflicted with AD): significant benefit
DHA treatment effect on any outcome measure in the E4-positive group ([10]; ApoE4-positive subjects): no DHA treatment effect

From patent US20110177061A1, “METHODS OF TREATING AND PREVENTING NEUROLOGICAL DISORDERS USING DOCOSAHEXAENOIC ACID” (MARTEK BIOSCIENCES CORPORATION, priority 2009, published 2011)
